Results from ChEMBL document CHEMBL1201862, “PubChem BioAssay data set” (2004).
The source made the active and inactive calls. For most assays here, no stated cut-off is given here; in the data, actives have a measured IC50 and inactives only a lower limit.

Legend:
[1] = insulin promoter down-regulators in MIN6 cells, imaging, high-content screening, mouse beta cells (AID 1628); type: functional
[2] = cytotoxicity in MIN6 insulinoma cells, dose response, cytotoxicity control, cell-based, mouse insulinoma (AID 2122); type: functional;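 further: confirmatory high-throughput counterscreen run to flag cytotoxic compounds; mouse MIN-6 beta cells carrying an insulin promoter eGFP reporter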
[3] = target: T1, Alkaline phosphatase, tissue-nonspecific isozyme (Homo sapiens, UniProt P05186); test: human TNAP enzyme inhibitors, SAR follow-up, biochemical, luminescent, dose response (AID 1056)
T1 sequence (P05186 whole entry): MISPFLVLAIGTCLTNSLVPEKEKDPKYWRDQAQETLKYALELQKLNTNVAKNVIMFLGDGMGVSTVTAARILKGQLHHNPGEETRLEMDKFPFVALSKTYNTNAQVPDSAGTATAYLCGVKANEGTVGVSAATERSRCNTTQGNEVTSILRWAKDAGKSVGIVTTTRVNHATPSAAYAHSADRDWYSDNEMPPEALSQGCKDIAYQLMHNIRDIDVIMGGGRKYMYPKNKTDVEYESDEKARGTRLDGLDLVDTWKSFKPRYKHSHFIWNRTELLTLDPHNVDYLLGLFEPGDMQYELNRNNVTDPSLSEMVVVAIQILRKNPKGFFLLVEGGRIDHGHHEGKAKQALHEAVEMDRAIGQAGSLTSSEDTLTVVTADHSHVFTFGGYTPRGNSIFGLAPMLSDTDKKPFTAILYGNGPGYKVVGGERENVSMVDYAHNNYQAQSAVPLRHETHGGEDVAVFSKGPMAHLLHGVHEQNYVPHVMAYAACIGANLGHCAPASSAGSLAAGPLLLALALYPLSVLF

[4] = target: Glyceraldehyde-3-phosphate dehydrogenase (Homo sapiens, UniProt P04406)
[5] = target: T2, Tyrosine-protein phosphatase non-receptor type 22 (Homo sapiens, UniProt Q9Y2R2); type: functional
T2 sequence (Q9Y2R2 whole entry): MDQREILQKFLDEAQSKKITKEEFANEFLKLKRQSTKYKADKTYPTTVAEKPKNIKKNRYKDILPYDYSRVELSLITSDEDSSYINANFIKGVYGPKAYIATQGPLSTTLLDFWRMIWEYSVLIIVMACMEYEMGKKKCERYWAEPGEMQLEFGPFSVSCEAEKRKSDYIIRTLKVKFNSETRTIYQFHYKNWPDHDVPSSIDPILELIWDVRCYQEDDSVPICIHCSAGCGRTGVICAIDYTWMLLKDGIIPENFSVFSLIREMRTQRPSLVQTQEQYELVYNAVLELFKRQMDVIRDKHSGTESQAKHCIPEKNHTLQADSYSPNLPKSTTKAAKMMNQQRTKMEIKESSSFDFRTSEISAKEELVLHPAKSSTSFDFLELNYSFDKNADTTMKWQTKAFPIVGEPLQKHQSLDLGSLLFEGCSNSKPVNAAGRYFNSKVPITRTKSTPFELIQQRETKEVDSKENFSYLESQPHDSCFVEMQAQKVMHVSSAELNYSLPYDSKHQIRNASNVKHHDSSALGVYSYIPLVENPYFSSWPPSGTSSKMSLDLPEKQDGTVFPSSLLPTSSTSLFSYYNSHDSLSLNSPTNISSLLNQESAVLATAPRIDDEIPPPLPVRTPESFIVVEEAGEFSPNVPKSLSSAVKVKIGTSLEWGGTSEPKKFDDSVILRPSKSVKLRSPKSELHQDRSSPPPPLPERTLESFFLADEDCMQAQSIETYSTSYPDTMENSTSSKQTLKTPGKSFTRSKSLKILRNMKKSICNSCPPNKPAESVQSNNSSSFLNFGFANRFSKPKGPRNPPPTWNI

[6] = target: T3, Tyrosine-protein phosphatase non-receptor type 7 (Homo sapiens, UniProt P35236); type: functional
T3 sequence (P35236 whole entry): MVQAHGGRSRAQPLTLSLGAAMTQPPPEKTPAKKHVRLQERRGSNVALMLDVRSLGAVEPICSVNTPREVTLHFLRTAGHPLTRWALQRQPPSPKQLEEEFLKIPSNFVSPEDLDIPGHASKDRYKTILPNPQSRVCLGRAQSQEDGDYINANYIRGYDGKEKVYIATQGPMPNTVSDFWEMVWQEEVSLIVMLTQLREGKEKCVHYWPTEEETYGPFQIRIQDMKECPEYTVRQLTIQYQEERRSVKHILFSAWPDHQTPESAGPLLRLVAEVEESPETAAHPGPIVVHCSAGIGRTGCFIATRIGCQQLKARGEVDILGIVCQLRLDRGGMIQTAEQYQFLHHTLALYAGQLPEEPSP

[7] = target: T2, Tyrosine-protein phosphatase non-receptor type 22; type: functional; remark: listed apart in the source
[8] = cytotoxicity toward NIH3T3 fibroblasts, dose response, counter-screen, cell-based, ATP luminescence, mouse fibroblasts (AID 2010); type: functional;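 further: cells exposed to compound for about 90 hours before reading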
[9] = inhibitors of intracellular T. cruzi replication, confirmation, NIH3T3 host cells, beta-gal luminescence (AID 2044); type: functional, cell-based;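 further: intracellular parasites grown in NIH/3T3 mouse fibroblasts as host cells; luminescent beta-galactosidase reporter signal from transgenic T. cruzi replicating inside host cells; inhibitors lower the luminescence signal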

Glyceraldehyde-3-phosphate dehydrogenase, sequence (P04406 whole entry): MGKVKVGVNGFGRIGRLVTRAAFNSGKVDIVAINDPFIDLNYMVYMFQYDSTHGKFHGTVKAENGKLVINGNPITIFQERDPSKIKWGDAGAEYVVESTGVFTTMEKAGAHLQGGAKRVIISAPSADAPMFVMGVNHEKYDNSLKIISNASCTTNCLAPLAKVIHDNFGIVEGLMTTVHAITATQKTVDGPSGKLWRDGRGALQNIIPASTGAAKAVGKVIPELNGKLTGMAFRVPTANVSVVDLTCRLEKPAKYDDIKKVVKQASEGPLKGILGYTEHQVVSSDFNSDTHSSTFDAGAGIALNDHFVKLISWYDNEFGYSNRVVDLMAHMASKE

Compound | IC50 [1] | IC50 [2] | IC50 [5] | IC50 [6] | IC50 [7] | other results
Cc1ccccc1Cn1c(=N)n(CC(=O)c2ccco2)c2ccccc21 | 3.99 µM (active) | 7.02 µM (active) | – | – | – | –
COC(=O)c1cc(-c2cc(F)c(F)cc2F)n[nH]1 | – | – | – | – | – | IC50 [3]: 1.07 µM (active); IC50 [4]: > 10 µM (inconclusive)
O=C(Cc1cccs1)N1CCN(c2ccc([N+](=O)[O-])cc2)CC1 | – | – | > 79.4 µM (inactive) | > 79.4 µM (inactive) | > 79.4 µM (inactive) | –
CC(C)CCNC(=O)c1ccc2c(Cl)c3c(nc2c1)CCC3 | – | – | > 79.4 µM (inactive) | > 79.4 µM (inactive) | > 79.4 µM (inactive) | –
Cc1cc(C)n(-c2nc(NCCC(C)C)c3c4c(sc3n2)COC(C)(C)C4)n1 | 3.09 µM (active) | 2.26 µM (active) | – | – | – | EC50 [8]: > 60 µM (not active); EC50 [9]: 1.64 µM (active)
